According to patent US7348425B2, “Inhibitors of HCV replication” (Bristol-Myers Squibb Company, priority 2004, dated 2008):

How the values were obtained:
[1] = biological target: T1, HCV NS5B RdRp genotype 1b (Hepatitis C virus genotype 1b, UniProt Q9WMX2); assay: Modified HCV NS5B RdRp enzyme assay (with preincubation); assay type: biochemical; conditions: modified method (with preincubation)
T1 construct: The protein was expressed with an 18 amino acid C-terminal truncation to enhance the solubility; made in house; host or cells: E. coli BL21 (DE3), pET21a
Protocol: HCVNS5B RdRp cloning, expression, and purification. The cDNA encoding the NS5B protein of HCV, genotype 1b, was cloned into the pET21a expression vector. The protein was expressed with an 18 amino acid C-terminal truncation to enhance the solubility. The E. coli competent cell line BL21 (DE3) was used for expression of the protein. Cultures were grown at 37° C. for ˜4 hours until the cultures reached an optical density of 2.0 at 600 nm. The cultures were cooled to 20° C. and induced with 1 mM IPTG. Fresh ampicillin was added to a final concentration of 50 μg/ml and the cells were grown overnight at 20° C.
Cell pellets (3 L) were lysed for purification to yield 15-24 mgs of purified NS5B. The lysis buffer consisted of 20 mM Tris-HCl, pH 7.4, 500 mM NaCl, 0.5% triton X-100, 1 mM DTT, 1 mM EDTA, 20% glycerol, 0.5 mg/ml lysozyme, 10 mM MgCl2, 15 ug/ml deoxyribonuclease I, and Complete TM protease inhibitor tablets (Roche). After addition of the lysis buffer, frozen cell pellets were resuspended using a tissue homogenizer. To reduce the viscosity of the sample, aliquots of the lysate were sonicated on ice using a microtip attached to a Branson sonicator. The sonicated lysate was centrifuged at 100,000×g for 1 hr at 4° C. and filtered through a 0.2 μm filter unit (Corning).
The protein was purified using three sequential chromatography steps: Heparin sepharose CL-6B, polyU sepharose 4B, and Hitrap SP sepharose (Pharmacia). The chromatography buffers were identical to the lysis buffer but contained no lysozyme, deoxyribonuclease I, MgCl2 or protease inhibitor and the NaCl concentration of the buffer was adjusted according to the requirements for charging the protein onto the column. Each column was eluted with a NaCl gradient which varied in length from 5-50 column volumes depending on the column type. After the final chromatography step, the resulting purity of the enzyme is >90% based on SDS-PAGE analysis. The enzyme was aliquoted and stored at −80° C.
Standard HCV NS5B RdRp enzyme assay. HCV RdRp genotype Ib assays were run in a final volume of 60 μl in 96 well plates (Costar 3912). The assay buffer is composed of 20 mM Hepes, pH 7.5, 2.5 mM KCl, 2.5 mM MgCl2, 1 mM DTT, 1.6 U RNAse inhibitor (Promega N2515), 0.1 mg/ml BSA (Promega R3961), and 2% glycerol. All compounds were serially diluted (3-fold) in DMSO and diluted further in water such that the final concentration of DMSO in the assay was 2%. HCV RdRp genotype 1b enzyme was used at a final concentration of 28 nM. A polyA template was used at 6 nM, and a biotinylated oligo-dT12 primer was used at 180 nM final concentration. Template was obtained commercially (Amersham 27-4110). Biotinylated primer was prepared by Sigma Genosys. ^3H-UTP was used at 0.6 μCi (0.29 μM total UTP). Reactions were initiated by the addition of enzyme, incubated at 30° C. for 60 min, and stopped by adding 25 μl of 50 mM EDTA containing SPA beads (4 μg/μl, Amersham RPNQ 0007). Plates were read on a Packard Top Count NXT after >1 hr incubation at room temperature.
Modified HCV NS5B RdRp enzyme assay. A modified enzyme assay was performed essentially as described for the standard enzyme assay except for the following: The biotinylated oligo dT12 primer was precaptured on streptavidin-coated SPA beads by mixing primer and beads in assay buffer and incubating at room temperature for one hour. Unbound primer was removed after centrifugation. The primer-bound beads were resuspended in 20 mM Hepes buffer, pH 7.5 and used in the assay at final concentrations of 20 nM primer and 0.67 μg/μl beads. Order of addition in the assay: enzyme (14 nM) was added to diluted compound followed by the addition of a mixture of template (0.2 nM), ^3H-UTP (0.6 μCi, 0.29 μM), and primer-bound beads, to initiate the reaction; concentrations given are final. Reactions were allowed to proceed for 4 hours at 30° C.
The IC50 values for compounds were determined using seven different [I]. […]

[2] = system: HCV replicon; assay: HCV replicon FRET assay; assay type: cell-based; conditions: Hepatitis C virus; FRET assay; read-out: EC50
Protocol: The IC50 values for compounds were determined using seven different [I]. IC50 values were calculated from the inhibition using the formula y=A+((B−A)/(1+((C/x)^D))). FRET Assay Preparation. To perform the HCV FRET screening assay, 96-well cell culture plates were used. The FRET peptide (Anaspec, Inc.) (Taliani et al., Anal. Biochem. 240:60-67 (1996), hereby incorporated by reference in its entirety) contains a fluorescence donor, EDANS, near one end of the peptide and an acceptor, DABCYL, near the other end. The fluorescence of the peptide is quenched by […] resonance energy transfer (RET) between the donor and the acceptor, but as the NS3 protease cleaves the peptide the products are released from RET quenching and the fluorescence of the donor becomes apparent. The assay reagent was made as follows: 5× cell Luciferase cell culture lysis reagent from Promega (#E153A) diluted to 1× with dH2O, NaCl added to 150 mM final, the FRET peptide diluted to 20 uM final from a 2 mM stock.
To prepare plates, HCV replicon cells, with or without a Renilla luciferase reporter gene, were trypsinized and placed into each well of a 96-well plate with titrated test compounds added in columns 3 through 12; columns 1 and 2 contained a control compound (HCV protease inhibitor), and the bottom row contained cells without compound. The plates were then placed in a CO2 incubator at 37 degrees C.
Assays. Subsequent to addition of the test compounds described above (FRET Assay Preparation), at various times the plate was removed and Alamar blue solution (Trek Diagnostics, #00-100) was added per well as a measure of cellular toxicity. After reading in a Cytoflour 4000 instrument (PE Biosystems), plates were rinsed with PBS and then used for FRET assay by the addition of 30 ul of the FRET peptide assay reagent described above (FRET Assay Preparation) per well. The plate was then placed into the Cytoflour 4000 instrument which had been set to 340 excite/490 emission, automatic mode for 20 cycles and the plate read in a kinetic mode. Typically, the signal to noise using an endpoint analysis after the reads was at least three-fold. Alternatively, after Alamar blue reading, plates were rinsed with PBS, 50 ul of DMEM (high glucose) without phenol red was added and plates were then used for luciferase assay using the Promega Dual-Glo Luciferase Assay System.
Compound analysis was determined by quantification of the relative HCV replicon inhibition and the relative cytotoxicity values. To calculate cytoxicity values, the average Alamar Blue fluorescence signals from the control wells were set as 100% non-toxic. The individual signals in each of the compound test wells were then divided by the average control signal and multiplied by 100% to determine […]. To calculate the HCV replicon inhibition values, an average background value was obtained from the two wells containing the highest amount of HCV protease inhibitor at the end of the assay period. These numbers were similar to those obtained from naïve Huh-7 cells.
The background numbers were then subtracted from the average signal obtained from the control wells and this number was used as 100% activity. The individual signals in each of the compound test wells were then divided by the averaged control values after background subtraction and multiplied by 100% to determine percent activity. EC50 values for a protease inhibitor titration were calculated as the concentration which caused a 50% reduction in FRET or luciferase activity. The two numbers generated for the compound plate, percent cytoxicity and percent activity were used to determine compounds of interest for further analysis.

T1 sequence (Q9WMX2 2420-2992): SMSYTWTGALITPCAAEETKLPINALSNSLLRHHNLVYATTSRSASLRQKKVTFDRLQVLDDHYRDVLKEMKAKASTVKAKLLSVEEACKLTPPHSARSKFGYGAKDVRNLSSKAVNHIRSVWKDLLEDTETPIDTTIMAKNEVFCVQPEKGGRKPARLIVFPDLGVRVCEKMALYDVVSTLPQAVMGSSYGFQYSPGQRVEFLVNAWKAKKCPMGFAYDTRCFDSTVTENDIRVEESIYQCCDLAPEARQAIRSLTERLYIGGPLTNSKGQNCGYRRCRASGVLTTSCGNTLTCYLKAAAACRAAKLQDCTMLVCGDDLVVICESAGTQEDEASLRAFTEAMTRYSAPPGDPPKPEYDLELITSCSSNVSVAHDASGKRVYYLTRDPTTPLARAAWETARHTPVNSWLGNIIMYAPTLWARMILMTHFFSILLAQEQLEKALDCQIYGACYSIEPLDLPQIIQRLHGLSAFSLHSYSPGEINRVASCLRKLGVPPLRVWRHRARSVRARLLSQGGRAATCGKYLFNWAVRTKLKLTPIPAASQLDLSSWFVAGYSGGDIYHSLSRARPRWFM

O=C(NC1(C(=O)Nc2ccc(-c3csc(C(=O)O)n3)cc2)CCCC1)c1ccc2c(C3CCCCC3)c3n(c2c1)CCCc1ccccc1-3
IC50 [1]: 20 to 1000 nM
EC50 [2]: 10 to 1000 nM

O=C(O)c1ccc2c(C3CCCCC3)c3n(c2c1)C/C=C\CN(CCO)c1ccccc1-3
IC50 [1]: > 1000 nM
EC50 [2]: 1000 to 10000 nM

O=C(O)c1ccc2c(C3CCCCC3)c3n(c2c1)CCCCN(CCO)c1ccccc1-3
IC50 [1]: > 1000 nM
EC50 [2]: 1000 to 10000 nM

O=C1Cn2c(c(C3CCCCC3)c3ccc(C(=O)NC4(C(=O)Nc5ccc(-c6cscn6)cc5)CCCC4)cc32)-c2ccccc2N1
IC50 [1]: 20 to 1000 nM
EC50 [2]: 10 to 1000 nM

CC(C)(C)OC(=O)N1C/C=C\Cn2c(c(C3CCCCC3)c3ccc(C(=O)O)cc32)-c2cnccc21
IC50 [1]: > 1000 nM
EC50 [2]: > 10000 nM

O=C(O)/C=C/c1ccc(NC(=O)C2(NC(=O)c3ccc4c(C5CCCCC5)c5n(c4c3)CCOc3ncccc3-5)CCCC2)cc1
IC50 [1]: 20 to 1000 nM
EC50 [2]: 10 to 1000 nM

CC(C)(C)OC(=O)N1CCCCn2c(c(C3CCCCC3)c3ccc(C(=O)O)cc32)-c2cnccc21
IC50 [1]: > 1000 nM
EC50 [2]: > 10000 nM

O=C(O)/C=C/c1ccc(NC(=O)C2(NC(=O)c3ccc4c(C5CCCCC5)c5n(c4c3)CCCN(CCO)c3ccccc3-5)CCCC2)cc1
IC50 [1]: 20 to 1000 nM
EC50 [2]: 10 to 1000 nM

COC(=O)c1ccc2c(C3CCCCC3)c3n(c2c1)CC(C(=O)O)Cc1ccccc1-3 (centres unmarked)
IC50 [1]: > 1000 nM
EC50 [2]: > 10000 nM

O=C(O)c1ccc2c(C3CCCCC3)c3c4ccccc4ncn3c2c1
IC50 [1]: > 1000 nM
EC50 [2]: > 10000 nM

COC(=O)/C=C/c1ccc(NC(=O)C2(NC(=O)c3ccc4c(C5CCCCC5)c5c6ccccc6ncn5c4c3)CCCC2)cc1
IC50 [1]: > 1000 nM
EC50 [2]: 1000 to 10000 nM

NC(=O)C1Cc2ccccc2-c2c(C3CCCCC3)c3ccc(C(=O)NC4(C(=O)Nc5ccc(/C=C/C(=O)O)cc5)CCCC4)cc3n2C1 (centres unmarked)
IC50 [1]: 20 to 1000 nM
EC50 [2]: 10 to 1000 nM

CC(C)(C)OC(=O)N1CC(O)Cn2c(c(C3CCCCC3)c3ccc(C(=O)O)cc32)-c2ccccc21 (centres unmarked)
IC50 [1]: 20 to 1000 nM
EC50 [2]: 1000 to 10000 nM

O=C(O)c1ccc2c(C3CCCCC3)c3n(c2c1)CC(O)CNc1ccccc1-3 (centres unmarked)
IC50 [1]: 20 to 1000 nM
EC50 [2]: 1000 to 10000 nM

O=C(O)c1ccc2c(C3CCCCC3)c3n(c2c1)C[C@@H](O)[C@@H](O)c1ncccc1-3
IC50 [1]: 20 to 1000 nM
EC50 [2]: 1000 to 10000 nM

CNC(=O)C1Cc2ccccc2-c2c(C3CCCCC3)c3ccc(C(=O)NC4(C(=O)Nc5ccc(/C=C/C(=O)O)cc5)CCCC4)cc3n2C1 (centres unmarked)
IC50 [1]: 20 to 1000 nM
EC50 [2]: 10 to 1000 nM

CN1CCN(C(=O)C2Cc3ccccc3-c3c(C4CCCCC4)c4ccc(C(=O)NC5(C(=O)Nc6ccc(/C=C/C(=O)O)cc6)CCCC5)cc4n3C2)CC1 (centres unmarked)
IC50 [1]: 20 to 1000 nM
EC50 [2]: 10 to 1000 nM

CN(C)CCNC(=O)C1Cc2ccccc2-c2c(C3CCCCC3)c3ccc(C(=O)NC4(C(=O)Nc5ccc(/C=C/C(=O)O)cc5)CCCC4)cc3n2C1 (centres unmarked)
IC50 [1]: 20 to 1000 nM
EC50 [2]: 10 to 1000 nM

O=C(O)/C=C/c1ccc(NC(=O)C2(NC(=O)c3ccc4c(C5CCCCC5)c5n(c4c3)CC(C(=O)N3CCC(N4CCCC4)CC3)Cc3ccccc3-5)CCCC2)cc1 (centres unmarked)
IC50 [1]: 20 to 1000 nM
EC50 [2]: 10 to 1000 nM

O=C(O)/C=C/c1ccc(NC(=O)C2(NC(=O)c3ccc4c(C5CCCCC5)c5n(c4c3)CC(C(=O)N3CCCCC3)Cc3ccccc3-5)CCCC2)cc1 (centres unmarked)
IC50 [1]: 20 to 1000 nM
EC50 [2]: 10 to 1000 nM

O=C(O)/C=C/c1ccc(NC(=O)C2(NC(=O)c3ccc4c(C5CCCCC5)c5n(c4c3)CC(C(=O)N3CCCC(O)C3)Cc3ccccc3-5)CCCC2)cc1 (centres unmarked)
IC50 [1]: 20 to 1000 nM
EC50 [2]: 10 to 1000 nM

O=C(O)/C=C/c1ccc(NC(=O)C2(NC(=O)c3ccc4c(C5CCCCC5)c5n(c4c3)CC(C(=O)N3CCN(c4ccncc4)CC3)Cc3ccccc3-5)CCCC2)cc1 (centres unmarked)
IC50 [1]: 20 to 1000 nM
EC50 [2]: 10 to 1000 nM

COC(=O)/C=C/c1ccc(NC(=O)C2(NC(=O)c3ccc4c(C5CCCCC5)c5n(c4c3)C[C@@H](O)[C@@H](O)c3ncccc3-5)CCCC2)cc1
IC50 [1]: 20 to 1000 nM
EC50 [2]: 10 to 1000 nM

O=C(O)/C=C/c1ccc(NC(=O)C2(NC(=O)c3ccc4c(C5CCCCC5)c5n(c4c3)C[C@@H](O)[C@@H](O)c3ncccc3-5)CCCC2)cc1
IC50 [1]: 20 to 1000 nM
EC50 [2]: 10 to 1000 nM

COC(=O)c1ccc2c(C3CCCCC3)c3n(c2c1)C[C@@H](O)[C@@H](O)c1ccccc1-3
IC50 [1]: > 1000 nM
EC50 [2]: 1000 to 10000 nM

O=C(O)c1ccc2c(C3CCCCC3)c3n(c2c1)C[C@@H](O)[C@@H](O)c1ccccc1-3
IC50 [1]: 20 to 1000 nM
EC50 [2]: 1000 to 10000 nM

CN(C(=O)c1ccc2c(C3CCCCC3)c3n(c2c1)CCCc1ccccc1-3)C1(C(=O)O)CCCC1
IC50 [1]: 20 to 1000 nM
EC50 [2]: > 10000 nM

CN(C)S(=O)(=O)NC(=O)c1ccc2c(C3CCCCC3)c3n(c2c1)C[C@@H](O)[C@@H](O)c1ccccc1-3
IC50 [1]: > 1000 nM
EC50 [2]: 10 to 1000 nM

COC(=O)/C=C/c1ccc(NC(=O)C2(NC(=O)c3ccc4c(C5CCCCC5)c5n(c4c3)C[C@@H](O)[C@@H](O)c3ccccc3-5)CCCC2)cc1
IC50 [1]: 20 to 1000 nM
EC50 [2]: < 100 nM

O=C1Cc2ccccc2-c2c(C3CCCCC3)c3ccc(C(=O)O)cc3n2C1
IC50 [1]: 20 to 1000 nM
EC50 [2]: 1000 to 10000 nM

O=C(O)/C=C/c1ccc(NC(=O)C2(NC(=O)c3ccc4c(C5CCCCC5)c5n(c4c3)C[C@@H](O)[C@@H](O)c3ccccc3-5)CCCC2)cc1
IC50 [1]: 20 to 1000 nM
EC50 [2]: 10 to 1000 nM
